{"source": "patent US11369565B2", "about": "“Amino-pyrimidine skeletal muscle modulators” (Cytokinetics, Inc., priority 2010, dated 2022)"}
{"tested_on": "rabbit skeletal myofibrils (approximately 90% fast fibers)", "test": "Activation of fast skeletal myofibrils (PUMA coupled-enzyme ATPase assay at pCa25)", "type": "biochemical", "details": "concentration at which the compound increased the enzymatic activity by 40%; calcium at pCa25; PM12 buffer pH 6.8", "method_in_brief": "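Detergent-washed rabbit psoas myofibrils tested at calcium giving 25% of maximal rate (pCa25). ATPase activity tracked by pyruvate kinase/lactate dehydrogenase coupling, NADH oxidation read as absorbance at 340 nm, in PM12 buffer (12 mM Pipes, 2 mM MgCl2, 1 mM DTT, pH 6.8).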"}
{"molecule": "O=c1[nH]cc(-c2cnc(NC[C@]3(c4ncccc4F)C[C@H](F)C3)nc2)c(=O)[nH]1", "note": "[5-[2-({[3-fluoro-1-(3-fluoro(2-pyridyl))cyclobutyl]methyl}amino)pyrimidin-5-yl]-1,3-dihydropyrimidine-2,4-dione]", "Mean AC1.4": "D (D=>20 uM)"}
{"molecule": "CSc1ccc(C(C)(C)Nc2ncc(-c3cccc(C#N)c3)cn2)cc1", "note": "[3-(2-{[1-methyl-1-(4-methylthiophenyl)ethyl]amino}pyrimidin-5-yl)benzenecarbonitrile]", "Mean AC1.4": "D (D=>20 uM)"}
{"molecule": "CC(C)(Nc1ncc(-n2cc(C(=O)NCCO)cn2)cn1)c1ncccc1Cl", "note": "[[1-(2-{[1-(3-chloro(2-pyridyl))-isopropyl]amino}pyrimidin-5-yl)pyrazol-4-yl]-N-(2-hydroxyethyl)carboxamide]", "Mean AC1.4": "D (D=>20 uM)"}
{"molecule": "CC(C)(Nc1ncc(-c2cccc(C(N)=O)n2)cn1)c1ncccc1Cl", "note": "[6-(2-{[1-(3-chloro(2-pyridyl))-isopropyl]amino}pyrimidin-5-yl)pyridine-2-carboxamide]", "Mean AC1.4": "C (C=10-20 uM)"}
{"molecule": "O=C(O)c1ccc(=O)n(-c2cnc(NC[C@]3(c4ncccc4F)C[C@H](F)C3)nc2)c1", "note": "[1-[2-({[3-fluoro-1-(3-fluoro(2-pyridyl))cyclobutyl]methyl}amino)pyrimidin-5-yl]-6-oxohydropyridine-3-carboxylic acid]", "Mean AC1.4": "D (D=>20 uM)"}
{"molecule": "CSc1ccccc1C(C)(C)Nc1ncc(-c2cccc(C#N)c2)cn1", "note": "[3-(2-{[1-methyl-1-(2-methylthiophenyl)ethyl]amino}pyrimidin-5-yl)benzenecarbonitrile]", "Mean AC1.4": "A (A=<1 uM)"}
{"molecule": "CC(C)(CNc1ncc(-c2nccc(C(N)=O)n2)cn1)c1ncccc1F", "note": "[2-(2-{[2-(3-fluoro(2-pyridyl))-2-methylpropyl]amino)pyrimidin-5-yl)pyrimidine-4-carboxamide]", "Mean AC1.4": "C (C=10-20 uM)"}
{"molecule": "CC(C)(Nc1ncc(-c2ccc(C(=O)O)s2)cn1)c1ncccc1Cl", "note": "[5-(2-{[1-(3-chloro(2-pyridyl))-isopropyl]amino}pyrimidin-5-yl)thiophene-2-carboxylic acid]", "Mean AC1.4": "D (D=>20 uM)"}
{"molecule": "CC(C)(CNc1ncc(Br)cn1)c1ccc(F)cc1", "note": "[5-Bromo-N-(2-(4-fluorophenyl)-2-methylpropyl)pyrimidin-2-amine]", "Mean AC1.4": "D (D=>20 uM)"}
{"molecule": "COc1nc(NC[C@]2(c3ncccc3F)C[C@H](F)C2)ncc1-c1cccc(C(N)=O)c1", "note": "[3-[2-({[3-fluoro-1-(3-fluoro(2-pyridyl))cyclobutyl]methyl}amino)-4-methoxypyrimidin-5-yl]benzamide]", "Mean AC1.4": "A (A=<1 uM)"}
{"molecule": "NC(=O)c1n[nH]c2ccc(-c3cnc(NC4(c5ncccc5F)CCC4)nc3)cc12", "note": "[5-(2-{[(3-fluoro-2-pyridyl)cyclobutyl]amino}pyrimidin-5-yl)-1H-indazole-3-carboxamide]", "Mean AC1.4": "A (A=<1 uM)"}
{"molecule": "CC(C)(Nc1ncc(-c2cc(C(N)=O)ccc2F)cn1)c1cccc(OC(F)F)n1", "note": "[3-[2-({1-[6-(difitioromethoxy)(2-pyridyl)]-isopropyl}amino)pyrimidin-5-yl]-4-fluorobenzamide]", "Mean AC1.4": "A (A=<1 uM)"}
{"molecule": "N#Cc1cnc(-c2cnc(NCC3(c4ccccn4)CCC3)nc2)s1", "note": "[2-(2-{[(2-pyridylcyclobutyl)methyl]amino}pyrimidin-5-yl)-1,3-thiazole-5-carbonitrile]", "Mean AC1.4": "D (D=>20 uM)"}
{"molecule": "NC(=O)c1ccn(-c2cnc(NC[C@]3(c4ncccc4F)C[C@H](F)C3)nc2)c1", "note": "[1-[2-({[3-fluoro-1-(3-fluoro(2-pyridyl))cyclobutyl]methyl}amino)pyrimidin-5-yl]pyrrole-3-carboxamide]", "Mean AC1.4": "A (A=<1 uM)"}
{"molecule": "Cc1nc(NC[C@]2(c3ncccc3F)C[C@H](F)C2)ncc1-c1cccc(C(N)=O)c1", "note": "[3-[2-({[3-fluoro-1-(3-fluoro(2-pyridyl))cyclobutyl]methyl}amino)-4-methylpyrimidin-5-yl]benzamide]", "Mean AC1.4": "B (B=1-10 uM)"}
{"molecule": "CC(C)(Nc1ncc(-c2cccc(C(N)=O)c2)cn1)c1ccccc1S(C)(=O)=O", "note": "[3-[2-({1-methyl-1-[2-(methylsulfonyl)phenyl]ethyl}amino)pyrimidin-5-yl]benzamide]", "Mean AC1.4": "D (D=>20 uM)"}
{"molecule": "CC(C)(Nc1ncc(-c2ccc(C(N)=O)s2)cn1)c1ncccc1Cl", "note": "[5-(2-{[1-(3-chloro(2-pyridyl))-isopropyl]amino}pyrimidin-5-yl)thiophene-2-carboxamide]", "Mean AC1.4": "B (B=1-10 uM)"}
{"molecule": "CC(C)(Nc1ncc(-c2nnc(C(N)=O)s2)cn1)c1ncccc1Cl", "note": "[5-(2-{[1-(3-chloro(2-pyridyl))-isopropyl]amino}pyrimidin-5-yl)-1,3,4-thiadiazole-2-carboxamide]", "Mean AC1.4": "D (D=>20 uM)"}
{"molecule": "O=C(Nc1cccnc1)c1cnc(NCC2(c3ncccc3F)CCC2)nc1", "note": "[[2-({[(3-fluoro(2-pyridyl))cyclobutyl]methyl}amino)pyrimidin-5-yl]-N-(3-pyridyl)carboxamide]", "Mean AC1.4": "C (C=10-20 uM)"}
{"molecule": "NC(=O)c1cccc(-c2cnc(NCC3(c4ncccc4F)CC(F)C3)nc2)c1", "note": "(stereo not drawn) [3-[2-({[3-fluoro-1-(3-fluoro(2-pyridyl))cyclobutyl]methyl}amino)pyrimidin-5-yl]benzamide]", "Mean AC1.4": "A (A=<1 uM)"}
{"molecule": "CSc1ccccc1C(C)(C)Nc1ncc(-c2cccc(C(N)=O)c2)cn1", "note": "[3-(2-{[1-methyl-1-(2-methylthiophenyl)ethyl]amino}pyrimidin-5-yl)benzamide]", "Mean AC1.4": "A (A=<1 uM)"}
{"molecule": "NC(=O)c1cnc(NC2(c3ccc(F)cc3)CCC2)nc1", "note": "[2-{[(4-fluorophenyl)cyclobutyl]amino} pyrimidine-5-carboxamide]", "Mean AC1.4": "D (D=>20 uM)"}
{"molecule": "CN(C(=O)c1ccnc(NCC2(c3ncccc3F)CCC2)n1)c1ccccc1", "note": "[[2-({[(3-fluoro(2-pyridyl))cyclobutyl]methyl}amino)pyrimidin-4-yl]-N-methyl-N-benzamide]", "Mean AC1.4": "D (D=>20 uM)"}
{"molecule": "NC(=O)c1ccnc(-c2cnc(NC[C@]3(c4ncccc4F)C[C@H](F)C3)nc2)c1", "note": "[2-[2-({[3-fluoro-1-(3-fluoro(2-pyridyl))cyclobutyl]methyl}amino)pyrimidin-5-yl]pyridine-4-carboxamide]", "Mean AC1.4": "B (B=1-10 uM)"}
{"molecule": "CC(C)(Nc1ncc(-c2csc(C(N)=O)c2)cn1)c1ncccc1Cl", "note": "[4-(2-{[1-(3-chloro(2-pyridyl))-isopropyl]amino}pyrimidin-5-yl)thiophene-2-carboxamide]", "Mean AC1.4": "B (B=1-10 uM)"}
{"molecule": "CC(C)(Nc1ncc(-c2ncc(C#N)s2)cn1)c1ncccc1F", "note": "[2-(2-{[1-(3-fluoro(2-pyridyl))-isopropyl]amino}pyrimidin-5-yl)-1,3-thiazole-5-carbonitrile]", "Mean AC1.4": "D (D=>20 uM)"}
{"molecule": "CC(C)(Nc1ncc(-c2cccc(C(N)=O)c2)cn1)c1cccc(OC(F)F)n1", "note": "[3-[2-({1-[6-(difluoromethoxy)(2-pyridyl)]-isopropyl}amino)pyrimidin-5-yl]benzamide]", "Mean AC1.4": "A (A=<1 uM)"}
{"molecule": "CC(C)(Nc1ncc(-c2csc(C(N)=O)n2)cn1)c1ncccc1Cl", "note": "[4-(2-{[1-(3-chloro(2-pyridyl))-isopropyl]amino}pyrimidin-5-yl)-1,3-thiazole-2-carboxamide]", "Mean AC1.4": "C (C=10-20 uM)"}
{"molecule": "N#Cc1n[nH]c2ccc(-c3cnc(NC4(c5ncccc5F)CCC4)nc3)cc12", "note": "[5-(2-{[(3-fluoro-2-pyridyl)cyclobutyl]amino}pyrimidin-5-yl)-1H-indazole-3-carbonitrile]", "Mean AC1.4": "B (B=1-10 uM)"}
{"molecule": "C[S+]([O-])c1cccnc1C(C)(C)Nc1ncc(-c2cccc(C(N)=O)c2)cn1", "note": "(stereo not drawn) [3-(2-(2-(3-(methylsulfinyl)pyridin-2-yl)propan-2-ylamino)pyrimidin-5-yl)benzamide]", "Mean AC1.4": "D (D=>20 uM)"}
{"molecule": "2-{[2-(4-f1uorophenyl)-2- methylpropyl]amino}-5,6,7,8- tetrahydropyridino[4,3- d]pyrimidine-6-carboxamide", "Mean AC1.4": "D (D=>20 uM)"}
{"molecule": "CC(C)(Nc1ncc(-c2ncc(C(=O)O)o2)cn1)c1ncccc1Cl", "note": "[2-(2-{[1-(3-chloro(2-pyridyl))-isopropyl]amino}pyrimidin-5-yl)-1,3-oxazole-5-carboxylic acid]", "Mean AC1.4": "D (D=>20 uM)"}
{"molecule": "CC(C)[C@H](Nc1ncc(-c2ncc(C(N)=O)s2)cn1)c1ncccc1Cl", "note": "[2-(2-{[(1S)-1-(3-chloro(2-pyridyl))-2-methylpropyl]amino}pyrimidin-5-yl)-1,3-thiazole-5-carboxamide]", "Mean AC1.4": "D (D=>20 uM)"}
{"molecule": "NC(=O)c1ccc(O)c(-c2cnc(NC[C@]3(c4ncccc4F)C[C@H](F)C3)nc2)c1", "note": "[3-[2-({[3-fluoro-1-(3-fluoro(2-pyridyl))cyclobutyl]methyl}amino)pyrimidin-5-yl]-4-hydroxybenzamide]", "Mean AC1.4": "A (A=<1 uM)"}
{"molecule": "N-(2-aminoethyl)[2-({[(3-fluoro(2- pyridyl))cyclobutyl]methyl}amino) pyrimidin-5-yl]carboxamide", "Mean AC1.4": "D (D=>20 uM)"}
{"molecule": "CC(C)(Nc1ncc(-c2ccnc(C(N)=O)c2)cn1)c1ncccc1Cl", "note": "[4-(2-{[1-(3-chloro(2-pyridyl))-isopropyl]amino}pyrimidin-5-yl)pyridine-2-carboxamide]", "Mean AC1.4": "B (B=1-10 uM)"}
{"molecule": "COc1ccc(-c2cnc(NC[C@]3(c4ncccc4F)C[C@H](F)C3)nc2)cn1", "note": "[{[3-fluoro-1-(3-fluoro(2-pyridyl))cyclobutyl]methyl} [5-(6-methoxy(3-pyridyl))pyrimidin-2-yl]amine]", "Mean AC1.4": "D (D=>20 uM)"}
{"molecule": "Cc1nc(N)ncc1-c1cnc(NC[C@]2(c3ncccc3F)C[C@H](F)C2)nc1", "note": "[[5-(2-amino-4-methylpyrimidin-5-yl)pyrimidin-2-yl]{[3-fluoro-1-(3-fluoro(2-pyridyl))cyclobutyl]methyl}amine]", "Mean AC1.4": "C (C=10-20 uM)"}
{"molecule": "NC(=O)c1cccc(-c2cnc(N)nc2)c1", "note": "[3-(2-aminopyrimidin-5-yl)benzamide]", "Mean AC1.4": "D (D=>20 uM)"}
